{"source": "paper PMC4163472", "about": "“Crystal Structure of Deinococcus radiodurans RecQ Helicase Catalytic Core Domain: The Interdomain Flexibility” (BioMed Research International, 2014)", "biological_target": "T1, DrRecQ helicase catalytic core (Deinococcus radiodurans, UniProt Q9RUU2)", "T1 construct": "gene DR_1289; residues 5-517 seen in the complex (296-300 not visible); monomer", "T1 sequence (Q9RUU2 1-517)": "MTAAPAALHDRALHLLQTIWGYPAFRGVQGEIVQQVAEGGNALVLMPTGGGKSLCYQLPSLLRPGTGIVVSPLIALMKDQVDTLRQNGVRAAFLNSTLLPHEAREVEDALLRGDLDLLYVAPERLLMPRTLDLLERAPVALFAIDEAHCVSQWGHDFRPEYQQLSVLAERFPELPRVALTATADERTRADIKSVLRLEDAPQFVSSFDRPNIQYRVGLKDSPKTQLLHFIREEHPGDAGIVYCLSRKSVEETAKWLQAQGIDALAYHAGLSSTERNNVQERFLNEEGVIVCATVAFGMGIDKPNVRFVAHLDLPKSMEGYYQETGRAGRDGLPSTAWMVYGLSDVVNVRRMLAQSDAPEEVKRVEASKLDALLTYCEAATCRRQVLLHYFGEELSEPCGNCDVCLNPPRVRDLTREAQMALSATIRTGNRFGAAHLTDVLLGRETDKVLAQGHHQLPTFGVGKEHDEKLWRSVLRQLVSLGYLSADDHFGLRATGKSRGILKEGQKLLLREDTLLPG", "test": "X-ray crystallography, […] A", "format": "binding", "conditions": "crystallised in 0.1 M imidazole pH 7.2, 16% PEG 20K; nucleotide pocket of D1 domain (motifs 0 and I); no magnesium added; authors suggest ADP arose from ATP hydrolysed during crystallization"}
{"smiles": "Nc1ncnc2c1ncn2[C@@H]1O[C@H](COP(=O)(O)OP(=O)(O)O)[C@@H](O)[C@H]1O", "note": "[ADP]", "values": [{"measurement": "X-ray crystallography, 2.9 A", "result": "ADP is bound with extensive interactions with the protein"}]}
